Measurements taken from publication PMC7504735, “Enhanced Antigiardial Effect of Omeprazole Analog Benzimidazole Compounds” (Molecules, 2020).

Key:
[1] = molecular target: T1, triosephosphate isomerase (TPI) (Giardia intestinalis, UniProt P36186); test: Second-order inactivation constant (k2) of TPI; type: biochemical, Giardia lamblia; conditions: read-out: Second-order inactivation constant k2
T1 construct: His-tag (TEV-cleavable) (cleaved yes); made in house
Description: Enzyme activity of TPI was determined spectrophotometrically as described by monitoring the conversion of glyceraldehyde-3-phosphate (GAP) to dihydroxyacetone phosphate (DHAP). Briefly, the conversion of GAP to DHAP using a coupling system with enzyme α-glycerol-3-phosphate dehydrogenase (α-GDH) was determinate by measuring NADH oxidation at 340 nm, at 25 °C. The standard reaction mixture contained 1 mM GAP, 0.2 mM NADH, and 0.9 units/mL of α-GDH in TE buffer (100 mM triethanolamine, 10 mM EDTA, pH 7.4). The reaction was initiated by adding 5 ng/mL of TPI to the reaction mixture.
To determine the inactivation of the TPI enzyme from G. lamblia, we performed inactivation assays of the enzyme in the presence of the synthesized compounds. The compounds’ stock solutions were freshly prepared using 100% dimethyl sulfoxide (DMSO) as the solvent at 25 mM. The inactivation assays were performed by incubating 0.2 mg/mL of the TPI enzyme for 2 h at 37 °C in TE buffer with increasing concentrations of the compounds (0 to 500 μM). […] After the incubation period, the enzymatic activity was measured by withdrawing an aliquot of each experimental condition, as described above. The results were expressed in terms of the percentage of activity versus the compound’s concentration.
The second-order rate constants of inactivation were calculated by obtaining the pseudo-first-order rate constant (k1) values at each fixed concentration by fitting them to an exponential decay curve. Then, the k1 values were replotted against the concentrations of each compound; the second-order rate constant value of inactivation was obtained from the slope of these plots.

[2] = molecular target: T1, triosephosphate isomerase (TPI); test: Thermal stability of TPI by circular dichroism at 222 nm; conditions: for Tm of TPI enzyme incubated with compound: compound at its IC50 concentration, 2 h at 37 °C, TPI free of treatment 60.6 °C
Description: All spectroscopic assays were carried out at a protein concentration of 0.2 mg/mL. Changes in the secondary structure of proteins were monitored by circular dichroism (CD) in a Jasco-810 spectropolarimeter containing a thermostated Peltier-controlled cell holder. For CD experiments, the enzyme was suspended in 50 mM phosphate buffer (buffer P), pH 7.4, and incubated with the four synthesized compounds by 2 h at 37 °C. Spectral scans from 190 to 280 nm at 0.1 nm intervals were performed at 25 °C using a quartz cell with 0.1 cm path length. All CD data were reported as molar ellipticity. In addition, the thermostability of modified TPI enzyme in the absence or presence of each of the synthesized compounds was evaluated, recording the loss of CD signal at 222 nm during a temperature scan ranging from 25 to 75 °C and an increase of 1 °C/2.5 min. The unfolded fraction of enzyme and melting temperature (Tm) was determined as reported before. The experiments were performed in triplicate.

[3] = molecular target: T1, triosephosphate isomerase (TPI); test: Intrinsic fluorescence of TPI; conditions: for Decrease of maximum intrinsic fluorescence intensity of TPI: compared to the TPI enzyme free of compounds; for Maximum intrinsic fluorescence intensity of TPI: compound at IC50 concentration, TPI without inhibitors 161 a.u. at 330 nm
Description: Changes in tertiary structure were analyzed following the intrinsic and extrinsic fluorescence of the TPI enzyme in a Perkin-Elmer LS-55 spectrofluorometer (Perkin-Elmer, Wellesley, MA, USA). The TPI protein was adjusted at 0.1 mg/mL in 50 mM phosphate buffer (buffer P), pH 7.4n, and incubated with the four synthesized compounds by 2 h at 37 °C. After the TPI protein was incubated with the synthesized compounds, the samples were excited at 280 nm and we recorded the emission spectra from 300 to 500 nm with a scan speed of 150 nm/min and using excitation and emission slits of 5 and 4 nm, respectively. Furthermore, we determined the extrinsic fluorescence of the TPI enzyme in the presence of the four compounds by 8-anilinonaphthalene-1-sulfonic acid (ANS) assay to monitor changes in the hydrophobic regions of the protein. The protein was incubated in the same conditions as the intrinsic fluorescence assay. Then, we recorded the fluorescence spectra from 400 to 600 nm in the presence of 25 mM of ANS dissolved in methanol at 25 °C with a scanning rate of 150 nm/min. The samples were excited to 395 nm using slits of excitation and emission of 10 nm, respectively. The final spectrum was the average of five scans. Later, each spectrum was subtracted from the spectra of the blank (buffer P solution containing each of the compounds plus ANS).

[4] = test system: Giardia lamblia trophozoites; test: Antigiardial activity on G. lamblia trophozoites, trypan blue dye exclusion; type: cell-based; conditions: Giardia duodenalis, 48 h at 37 °C, pH 7.4, trypan blue
Description: Giardia lamblia WB strain (ATCC number 30957) was grown in a modified TYI-S-33 medium supplemented with 10% fetal bovine serum. The parasite was cultivated in 15 mL screw-capped borosilicate glass tubes containing 13 mL medium. The tubes were incubated on a 15° horizontal slant at 37 °C. Giardia was harvested from confluent culture by chilling the tubes on ice for 5‒10 min to detach cells, followed by centrifugation at 800× g for 5 min.
The antigiardial activity of the prepared compounds was tested as described. One milligram of a test compound was dissolved in 10 L of DMSO and topped up with 1 mL growth medium. The solution was filter-sterilized using 0.22-m syringe filters and the appropriate volumes of the solutions were taken to prepare the concentration of each compound in 1.5 mL microtubes. For each preparation, concentrations of 500, 250, 125, 62, and 31 µg/mL were prepared in a final volume of 1.5 mL. Each tube was inoculated with 5 × 10^4 trophozoites of G. lamblia and then incubated for 48 h at 37 °C. After incubation, 75 L of the treated trophozoites were subcultured individually for another 48 h in a fresh medium free of compounds. At the end of this period, the viable trophozoites were counted. Each compound was assayed in duplicate in three independent experiments. In each assay, appropriate controls were also tested, including a sample without compound and another with DMSO.
The parasites in each tube were counted using a standard hemocytometer at 10× objective. In each count, trypan blue was employed to distinguish live parasites from dead ones. To permit detachment of Giardia, the tubes were placed on ice for 10 min and the parasites were then centrifuged at 800× g for 10 min. The supernatant was discarded and 1 mL fresh medium was added to each tube. The final suspension was prepared by mixing 25 μL of the parasite suspension in each tube with 100 μL of 0.4% trypan blue in phosphate-buffered saline (PBS). The 50% inhibitory concentration (IC50) was employed as a parameter for biological activity. The IC50 is the concentration of compounds that cuts the number of parasites to half that in the negative control (growth medium + DMSO + parasites). Lastly, the 50% inhibitory concentration (IC50) was calculated.

T1 sequence (P36186 whole entry): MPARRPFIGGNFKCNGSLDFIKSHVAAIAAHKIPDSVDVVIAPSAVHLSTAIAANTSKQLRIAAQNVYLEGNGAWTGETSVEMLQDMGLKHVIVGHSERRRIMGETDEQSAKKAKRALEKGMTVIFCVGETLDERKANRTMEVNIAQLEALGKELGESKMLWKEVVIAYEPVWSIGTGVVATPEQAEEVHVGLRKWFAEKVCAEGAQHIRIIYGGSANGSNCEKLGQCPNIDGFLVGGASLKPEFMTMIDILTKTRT

Compound: COc1c(C)cnc(C[S+]([O-])c2nc3ccccc3[nH]2)c1C (stereo not drawn) [H-BZM2, 2-[(4-methoxy-3,5-dimethylpyridin-2-yl)methanesulfinyl]-1H-benzimidazole]
- kinact/KI [1]: 2.3 M⁻¹ s⁻¹
- Tm of TPI enzyme incubated with compound [2]: 59.9 °C
- Decrease of maximum intrinsic fluorescence intensity of TPI [3]: 75%
- Maximum intrinsic fluorescence intensity of TPI [3]: 40.1 a.u.
- IC50 [4]: 36 µM

Compound: O=[N+]([O-])c1ccc2nc([S+]([O-])Cc3ccccn3)[nH]c2c1 (stereo not drawn) [O2N-BZM7, 5-nitro-2-[(pyridin-2-yl)methanesulfinyl]-1H-benzimidazole]
- kinact/KI [1]: 3.2 M⁻¹ s⁻¹
- Tm of TPI enzyme incubated with compound [2]: 57.5 °C
- Loss in thermal stability of TPI ([2]; versus TPI free of treatment): 3 °C
- Decrease of maximum intrinsic fluorescence intensity of TPI [3]: 33%
- Maximum intrinsic fluorescence intensity of TPI [3]: 107 a.u.
- IC50 [4]: 14 µM

Compound: Cc1c(OCC(F)(F)F)ccnc1C[S+]([O-])c1nc2ccccc2[nH]1 (stereo not drawn) [Lansoprazole, 2-{[3-methyl-4-(2,2,2-trifluoroethoxy)pyridin-2-yl]methanesulfinyl}-1H-benzimidazole, reference compound]
- kinact/KI [1]: 1.78 M⁻¹ s⁻¹
- Tm of TPI enzyme incubated with compound [2]: 60.2 °C
- Decrease of maximum intrinsic fluorescence intensity of TPI [3]: 25%
- Maximum intrinsic fluorescence intensity of TPI [3]: 123 a.u.
- IC50 [4]: 45 µM

Compound: Cc1c(OCC(F)(F)F)ccnc1C[S+]([O-])c1nc2ccc([N+](=O)[O-])cc2[nH]1 (stereo not drawn) [O2N-BZM9, 2-{[3-methyl-4-(2,2,2-trifluoroethoxy)pyridin-2-yl]methanesulfinyl}-5-nitro-1H-benzimidazole]
- kinact/KI [1]: 2.8 M⁻¹ s⁻¹
- Tm of TPI enzyme incubated with compound [2]: 58.4 °C
- Decrease of maximum intrinsic fluorescence intensity of TPI [3]: 55%
- Maximum intrinsic fluorescence intensity of TPI [3]: 72.6 a.u.
- IC50 [4]: 17 µM
